Drawing on ChEMBL document CHEMBL2202958, “Development of potent macrocyclic inhibitors of genotype 3a HCV NS3/4A protease” (Bioorg Med Chem Lett, 2012), this text covers Ki, IC50 and concentration for 19 molecules.

The nature of data set [1]: Inhibition of HCV1b BK NS3/4A protease expressed in Escherichia coli after 1 hr by time-resolved fluorescence assay. Details: species or system Hepatitis C virus (isolate BK).
The test system of data set [2] is Hepatitis C virus. As to the kind of experiment: Antiviral activity against HCV1b con1 infected in human Huh-7 cells assessed as inhibition of viral replication after 24 hrs in presence of 50% normal human serum. The class given is functional, organism-based, Hepacivirus hominis. As to conditions: Con1, Huh-7, 24 h.
Data set [3] deals with Hepatitis C virus. Kind of data set: Antiviral activity against HCV1b con1 infected in human Huh-7 cells assessed as inhibition of viral replication after 24 hrs in presence of 10% fetal bovine serum. It counts as functional, organism-based, Hepacivirus hominis. The settings on record: Con1, Huh-7, 24 h.
Data set [4] can be described thus: Inhibition of HCV3a NS3/4A protease by time-resolved fluorescence assay. Details: species or system Hepatitis C virus subtype 3a.
A short description of data set [5]: Drug level in Sprague-Dawley rat liver at 5 mg/kg, po after 4 hrs. It counts as ADME, organism-based. Details: dose 5 mg/kg, route oral. As to conditions: read-out: Drug uptake.

A value given as a limit tells only on which side of the number the result lay.

For the molecule `C=C[C@@H]1C[C@]1(NC(=O)[C@@H]1C[C@@H]2CN1C(=O)[C@H](C1CCCC1)NC(=O)OCC(C)(C)CCCc1cc3c(nc4ccccc4c3cc1OC)O2)C(=O)NS(=O)(=O)C1CC1`, the Ki in data set [1] was < 0.02 nM; in data set [4] it was 1.7 nM. Moreover, the IC50 was 29 nM with Hepatitis C virus [2] and 3 nM in the data set on Hepatitis C virus [3]. Further, the concentration at 4 h in data set [5] worked out at 27000 nM.

Regarding `C=C[C@@H]1C[C@]1(NC(=O)[C@@H]1C[C@@H]2CN1C(=O)[C@H](C1CCCC1)NC(=O)OCC(C)(C)CCCc1cc3c(cc(OCc4ncco4)nc3cc1OC)O2)C(=O)NS(=O)(=O)C1CC1`, the Ki in data set [1] was < 0.02 nM; in data set [4] it was 1.1 nM. The figures for the IC50 in the data set with Hepatitis C virus [2] and in the data set on Hepatitis C virus [3] were 16 nM and 4 nM, respectively. In data set [5], the concentration at 4 h was 2600 nM.

Consider `C=C[C@@H]1C[C@]1(NC(=O)[C@@H]1C[C@@H]2CN1C(=O)[C@H](C1CCCCC1)NC(=O)OCC(C)(C)CCCc1ccc3c(c1)c(cc1nccn13)O2)C(=O)NS(=O)(=O)C1CC1`, for which the values for the Ki in data set [1] and in data set [4] were 0.08 nM and 5.2 nM, respectively. The values for the IC50 with Hepatitis C virus [2] and with Hepatitis C virus [3] were 180 nM and 33 nM, respectively. In data set [5], the concentration at 4 h came out at 700 nM.

In the case of `C=C[C@@H]1C[C@]1(NC(=O)[C@@H]1C[C@@H]2CN1C(=O)[C@H](C1CCCC1)NC(=O)OCC(C)(C)CCCc1cc3c(cc(OCc4ncn(C)n4)nc3cc1OC)O2)C(=O)NS(=O)(=O)C1CC1`, the Ki worked out at 0.03 nM in data set [1] and 1 nM in data set [4]. For the same molecule, the IC50 amounted to 170 nM in the data set on Hepatitis C virus [2] and 36 nM with Hepatitis C virus [3]. Moreover, the concentration at 4 h in data set [5] came to 30 nM.

With `C=C[C@@H]1C[C@]1(NC(=O)[C@@H]1C[C@@H]2CN1C(=O)[C@H](C1CCCCC1)NC(=O)OCC(C)(C)CCCc1cc3c(cc(N4CCCCC4)nc3cc1OC)O2)C(=O)NS(=O)(=O)C1CC1`, the Ki in data set [1] was 0.07 nM; in data set [4], 7.5 nM. Also, the IC50 turned out to be 26 nM in the data set with Hepatitis C virus [2] and 5 nM in the data set on Hepatitis C virus [3]. Besides, the concentration at 4 h in data set [5] worked out at 100 nM.

Regarding `C=C[C@@H]1C[C@]1(NC(=O)[C@@H]1C[C@@H]2CN1C(=O)[C@H](C1CCCCC1)NC(=O)OCC(C)(C)CCCc1cc3c(cc(-c4ccc(F)cc4)nc3cc1OC)O2)C(=O)NS(=O)(=O)C1CC1`, the Ki in data set [1] was found to be 0.18 nM; in data set [4] it was 29 nM. For the same molecule, the IC50 in the data set on Hepatitis C virus [2] came to 110 nM; in the data set on Hepatitis C virus [3], 11 nM.

In the case of `C=C[C@@H]1C[C@]1(NC(=O)[C@@H]1C[C@@H]2CN1C(=O)[C@H](C1CCCCC1)NC(=O)OCC(C)(C)CCCc1cc3c(cc(-c4ccc(OC)cc4)nc3cc1OC)O2)C(=O)NS(=O)(=O)C1CC1`, the Ki in data set [1] came out at 0.07 nM; in data set [4] it was 18 nM. For the same molecule, the IC50 in the data set on Hepatitis C virus [2] is 25 nM; with Hepatitis C virus [3] it was 3 nM. Besides, the concentration at 4 h in data set [5] is 6100 nM.

Take `C=C[C@@H]1C[C@]1(NC(=O)[C@@H]1C[C@@H]2CN1C(=O)[C@H](C1CCCCC1)NC(=O)OCC(C)(C)CCCc1cc3c(cc4nccn4c3cc1OC)O2)C(=O)NS(=O)(=O)C1CC1`: the Ki in data set [1] was 0.04 nM; in data set [4] it was 1.8 nM. The values for the IC50 in the data set on Hepatitis C virus [2] and in the data set on Hepatitis C virus [3] were 140 nM and 43 nM, respectively. Also, the concentration at 4 h in data set [5] was found to be 800 nM.

In the case of `C=C[C@@H]1C[C@]1(NC(=O)[C@@H]1C[C@@H]2CN1C(=O)[C@H](C1CCCCC1)NC(=O)OCC(C)(C)CCCc1cc3c(cc(-c4ccccc4OC)nc3cc1OC)O2)C(=O)NS(=O)(=O)C1CC1`, the figures for the Ki in data set [1] and in data set [4] were 0.09 nM and 62 nM, respectively. For the same molecule, the IC50 with Hepatitis C virus [2] was found to be 31 nM; in the data set with Hepatitis C virus [3], 7 nM. Also, in data set [5], the concentration at 4 h came out at 6300 nM.

Regarding `C=C[C@@H]1C[C@]1(NC(=O)[C@@H]1C[C@@H]2CN1C(=O)[C@H](C1CCCCC1)NC(=O)OCC(C)(C)CCCc1cc3c(cc(-c4ccccc4)nc3cc1OC)O2)C(=O)NS(=O)(=O)C1CC1`, the Ki in data set [1] was found to be 0.05 nM; in data set [4], 21 nM. The values for the IC50 in the data set on Hepatitis C virus [2] and in the data set with Hepatitis C virus [3] were 28 nM and 3.6 nM, respectively. The concentration at 4 h in data set [5] turned out to be 9900 nM.

As to `C=C[C@@H]1C[C@]1(NC(=O)[C@@H]1C[C@@H]2CN1C(=O)[C@H](C1CCCC1)NC(=O)OCC(C)(C)CCCc1cc3c(cc(OCc4csc(C(C)C)n4)nc3cc1OC)O2)C(=O)NS(=O)(=O)C1CC1`, the Ki is < 0.02 nM in data set [1] and 2 nM in data set [4]. Further, the 50% inhibitory concentration (IC50) in the data set on Hepatitis C virus [2] worked out at 26 nM; with Hepatitis C virus [3], 4 nM. Moreover, in data set [5], the concentration at 4 h was 2700 nM.

With `C=C[C@@H]1C[C@]1(NC(=O)[C@@H]1C[C@@H]2CN1C(=O)[C@H](C1CCCCC1)NC(=O)OCC(C)(C)CCCc1cc3c(cc(OCC)nc3cc1OC)O2)C(=O)NS(=O)(=O)C1CC1`, the Ki was determined as 0.09 nM in data set [1] and 7.6 nM in data set [4]. Further, the half-inhibitory concentration (IC50) with Hepatitis C virus [2] amounted to 43 nM; with Hepatitis C virus [3], 6 nM. In addition, the concentration at 4 h in data set [5] stood at 40000 nM.

Consider `C=C[C@@H]1C[C@]1(NC(=O)[C@@H]1C[C@@H]2CN1C(=O)[C@H](C1CCCCC1)NC(=O)OCC(C)(C)CCCc1cc3c(cc(NC)nc3cc1OC)O2)C(=O)NS(=O)(=O)C1CC1`, for which the values for the Ki in data set [1] and in data set [4] were 0.09 nM and 5.4 nM, respectively. Also, the figures for the IC50 in the data set with Hepatitis C virus [2] and in the data set with Hepatitis C virus [3] were 90 nM and 1.6 nM, respectively. The concentration at 4 h in data set [5] was < 5 nM.

With `C=C[C@@H]1C[C@]1(NC(=O)[C@@H]1C[C@@H]2CN1C(=O)[C@H](C1CCCCC1)NC(=O)OCC(C)(C)CCCc1cc3c(cc(NC4CCCCC4)nc3cc1OC)O2)C(=O)NS(=O)(=O)C1CC1`, the Ki in data set [1] came to 0.12 nM; in data set [4] it was 7.6 nM. Also, the results for the IC50 with Hepatitis C virus [2] and in the data set on Hepatitis C virus [3] were 1200 nM and 39 nM, respectively.

In the case of `C=C[C@@H]1C[C@]1(NC(=O)[C@@H]1C[C@@H]2CN1C(=O)[C@H](C1CCCCC1)NC(=O)OCC(C)(C)CCCc1cc3c(cc(-c4cccnc4)nc3cc1OC)O2)C(=O)NS(=O)(=O)C1CC1`, the IC50 was found to be 92 nM in the data set on Hepatitis C virus [2] and 27 nM in the data set on Hepatitis C virus [3]. The Ki in data set [4] stood at 55 nM. Further, the concentration at 4 h in data set [5] was determined as 200 nM.

`C=C[C@@H]1C[C@]1(NC(=O)[C@@H]1C[C@@H]2CN1C(=O)[C@H](C1CCCCC1)NC(=O)OCC(C)(C)CCCc1cc3c(cc(OC4CCCC4)nc3cc1OC)O2)C(=O)NS(=O)(=O)C1CC1`: the Ki amounted to 0.05 nM in data set [1] and 15 nM in data set [4]. The IC50 in the data set on Hepatitis C virus [2] came to 34 nM; in the data set with Hepatitis C virus [3] it was 5 nM. In data set [5], the concentration at 4 h was determined as 4600 nM.

For `C=C[C@@H]1C[C@]1(NC(=O)[C@@H]1C[C@@H]2CN1C(=O)[C@H](C1CCCCC1)NC(=O)OCC(C)(C)CCCc1cc3c(cc(O)nc3cc1OC)O2)C(=O)NS(=O)(=O)C1CC1`, the Ki in data set [1] was 0.07 nM; in data set [4] it was 23 nM. Besides, the values for the IC50 in the data set on Hepatitis C virus [2] and in the data set on Hepatitis C virus [3] were 460 nM and 85 nM, respectively. The concentration at 4 h in data set [5] stood at 70 nM.

Turning to `C=C[C@@H]1C[C@]1(NC(=O)[C@@H]1C[C@@H]2CN1C(=O)[C@H](C1CCCC1)NC(=O)OCC(C)(C)CCCc1cc3c(nc4ccc(Cl)cc4c3cc1OC)O2)C(=O)NS(=O)(=O)C1CC1`, the values for the Ki in data set [1] and in data set [4] were < 0.02 nM and 36 nM, respectively. The IC50 worked out at 31 nM in the data set on Hepatitis C virus [2] and 7 nM in the data set on Hepatitis C virus [3].

For `C=C[C@@H]1C[C@]1(NC(=O)[C@@H]1C[C@@H]2CN1C(=O)[C@H](C1CCCCC1)NC(=O)OCC(C)(C)CCCc1cc3c(cc(-c4cccc(OC)c4)nc3cc1OC)O2)C(=O)NS(=O)(=O)C1CC1`, the Ki in data set [1] is 0.07 nM; in data set [4] it was 78 nM. Also, the results for the IC50 in the data set with Hepatitis C virus [2] and in the data set on Hepatitis C virus [3] were 19 nM and 6 nM, respectively. Besides, the concentration at 4 h in data set [5] was 6700 nM.

As usually defined, the Ki is a dissociation constant, usually derived from enzyme kinetics or from competition with a known ligand. A lower Ki goes with higher affinity. In general, IC50 refers to the midpoint of a concentration-inhibition curve.
